Reference: US20220370317A1, “COMPOSITION FOR SKIN WHITENING, COMPRISING CARVONE OR SALT THEREOF AS ACTIVE INGREDIENT” (BOTANICSENS, priority 2019, published 2022)
Read-outs that look alike come from different tables or passages of the source.

Key:
[1] = in water and ethanol; cited from earlier work
[2] = test system: B6F10 melanocytes; test: Measurement of melanin production in cells (α-MSH-induced melanogenesis); type: cell-based; conditions: α-MSH (100 nM) plus carvone (100 μM), 48 hours
Method: B16F10 melanocytes were purchased from ATCC (Manassas, Va., USA), and the purchased cells were cultured using DMEM (Dulbecco's Modified Eagle's Media) containing 10% FBS (fetal bovine serum) in an incubator at 37° C. under 5% CO2. B6F10 melanocytes were cultured in DMEM containing 10% FBS at 37° C. under 5% CO2, and then the cells were dispensed into a 6-well plate at a density of 1×10^5 cells/well and attached thereto. […] After washing twice with PBS (phosphate buffered saline), the cells were harvested. The harvested cells were centrifuged at 1,000 rpm for 5 minutes, and then the color of the pellet was visually observed. Thereafter, the cell pellet was lysed by adding 200 μL of 1N NaOH solution containing 10% DMSO, and then the absorbance at 400 nm was measured with a microplate reader.

[3] = oral, rats; cited from earlier work
[4] = test system: MITF (microphthalmia transcription factor); test: RNA extraction and quantitative PCR assay, MITF expression; type: cell-based; conditions: B6F10 melanocytes, α-MSH plus carvone, vs α-MSH control cells
Method: (§1) B6F10 melanocytes were cultured in DMEM containing 10% FBS at 37° C. under 5% CO2, and then the cells were dispensed into a 6-well plate at a density of 1×10^5 cells/well and attached thereto. As normal cells, cells not treated with α-MSH that induces melanogenesis were used, and as control cells, cells treated with α-MSH (100 nM) were used. The cells cultured under the above conditions were treated with α-MSH (100 nM) plus carvone (100 μM) and cultured for 48 hours. […] Using the cDNA obtained through reverse transcription as a template and using the [NT] flanking sequences of the gene cDNA to be amplified as primers, quantitative PCR was performed using iQ SYBR green supermix (Bio-Rad) and CFX ConnectTM Real-Time PCR Detection System (Bio-Rad). [table]

[5] = transdermal; cited from earlier work
[6] = test system: Tyrosinase; test: RNA extraction and quantitative PCR assay, tyrosinase expression; type: cell-based; conditions: B6F10 melanocytes, α-MSH plus carvone, vs α-MSH control cells
Method: as §1

**Q.** For `C=C(C)C1CC=C(C)C(=O)C1` (stereo not shown) [carvone], which solubility [1] is on record?
**A.** The solubility was “well soluble”.

**Q.** What about the “decrease of melanin content compared to control cells” value ([2]; absorbance at 400 nm, vs α-MSH control cells) of the same compound?
**A.** Its value is 29%.

**Q.** And the “pellet color of cells, visually observed” value ([2]; compared to control cells treated with only α-MSH)?
**A.** Its value is “significantly paler”.

**Q.** What about the LD50 [3] of the same compound?
**A.** The LD50 was 1,640 mg/kg.

**Q.** What about the “decrease of MITF expression compared to control cells” value [4] of the same compound?
**A.** Its value is 36%.

**Q.** What about the LD50 [5] of the same compound?
**A.** The LD50 was ≥ 4,000 mg/kg.

**Q.** What about the “decrease of tyrosinase expression compared to control cells” value [6] of the same compound?
**A.** The value was 31%.
